Experimental data published in patent US20090179638A1, “ASSAY FOR IDENTIFYING INHIBITORS OF NEURONAL APOPTOTIC PATHWAYS” (AEGERA THERAPEUTICS INC., priority 2006, published 2009).

Columns and labels:
HSP90 = assay: Compound 6-bead pulldown of purified HSP90; format: binding; conditions: competing compound at 80 μM
Description: (§1) FIGS. 5B and 5C are photographs of Western blots showing that compound 1 binds HSP90 and causes HSF1-dependent expression of HSP70 and HSP25. A: Wild-type or HSF1 null MEFs were transfected with pGL3B-HSP70, an HSP70 promoter reporter construct, or parental vector (pGL3B), then treated with 40 μM of compound 1 for 24 hours and analyzed for luciferase content as described in Materials and Methods (*=P<0.005 relative to 0 compound 1; **=P<0.005 relative to wild-type MEFs treated with 40 uM compound 1. B: Wild-type or HSF1 null MEFs were treated with increasing concentrations of compound 1 for 24 hours, cells were lysed, normalized for protein content, and analyzed for levels of HSP70, HSP40, and HSP25 as indicated. C: Compound 6-conjugated Sepharose beads were incubated with purified HSP90 for 2 hours, washed, and levels of bound HSP90 were analyzed by immunoblot. Con=Control beads, Alone=Compound 6-beads alone, Comp=[…]+competing compound 1 (at 80 μM). Experiments in Panel A-C were performed three times with identical results.
Compound 6 was coupled with Affi-Gel 10 beads (BioRad) and used as an affinity reagent in pulldown experiments. Beads were incubated either with whole cell lysates or with purified HSP90, washed extensively, and bound proteins were then eluted and analyzed by SDS-PAGE and immunoblotting. […]

HSP70 promoter = HSP70 promoter reporter transcriptional assay in MEFs (luciferase); format: cell-based, mouse
Description: as §1
Induction of cell stress results in the interaction of HSP90 with misfolded proteins and disrupts its association with HSF1, allowing it to bind and activate HSP70 and HSP25 promoters (Sanchez-Perez and Perona, 1999). […]

## NS(=O)(=O)c1nn2cc(-c3ccccc3)nc2s1 [Compound 1]
HSP90
  effect of excess unbound compound on compound 6-bead:HSP90 interaction: strongly attenuated
HSP70 promoter; MEFs lacking HSF1, 40 μM
  transcriptional activity of the HSP70 promoter reporter construct: remained at baseline
HSP70 promoter; wild-type MEFs, 40 μM
  transcriptional activity of the HSP70 promoter reporter construct: strongly induced
